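All cell lines were grown in 96-well plates and treated with compound for 48 hours. Abbreviation: GI50, concentration required for 50% inhibition of growth.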 Active and inactive are the calls of the source. Rule as the data show it: active = GI50 up to about 1.1 µM and inactive = higher.
Tests used:
Experiment in all cases: NCI tumour cell line growth inhibition, 48 h
[1] = system: SN12C
[2] = system: HL-60
[3] = system: TK-10
[4] = system: HT-29
[5] = system: LOX IMVI
[6] = system: RXF 393
[7] = system: HCT-116
[8] = system: SK-MEL-28
[9] = system: OVCAR-5
[10] = system: SF-539
[11] = system: UO-31
[12] = system: SNB-75
[13] = system: A549
[14] = system: SW-620
[15] = system: NCI/ADR-RES
[16] = system: T47D
[17] = system: PC-3
[18] = system: UACC-257
[19] = system: SK-MEL-5
[20] = system: CCRF-CEM
[21] = system: K562
[22] = system: Hs-578T
[23] = system: SR
[24] = system: MDA-MB-435
[25] = system: RPMI-8226
[26] = system: COLO 205
[27] = system: ACHN
[28] = system: U-251
[29] = system: MDA-N
[30] = system: SK-MEL-2
[31] = system: SF-268
[32] = system: OVCAR-8
[33] = system: SNB-19
[34] = system: NCI-H23
[35] = system: HCT-15
[36] = system: M14
[37] = system: 786-0
[38] = system: EKVX
[39] = system: IGROV-1
[40] = system: MOLT-4
[41] = system: BT-549
[42] = system: HCC 2998
[43] = system: NCI-H522
[44] = system: MDA-MB-231
[45] = system: HOP-92
[46] = system: DU-145
[47] = system: OVCAR-3
[48] = system: MCF7
[49] = system: UACC-62
[50] = system: NCI-H460
[51] = system: NCI-H226
[52] = system: KM12
[53] = system: Malme-3M
[54] = system: OVCAR-4
[55] = system: SF-295
[56] = system: SK-OV-3
[57] = system: A498
[58] = system: HOP-62

CCOC(=O)C(NC(=O)CC)(Nc1cc(C)on1)C(F)(F)F (configuration not stated)
GI50 [1]: > 100 µM (inactive) | GI50 [2]: > 100 µM (inactive) | GI50 [3]: > 100 µM (inactive) | GI50 [4]: > 100 µM (inactive) | GI50 [5]: > 100 µM (inactive) | GI50 [6]: > 100 µM (inactive) | GI50 [7]: > 100 µM (inactive) | GI50 [8]: > 100 µM (inactive) | GI50 [9]: > 100 µM (inactive) | GI50 [10]: > 100 µM (inactive) | GI50 [11]: > 100 µM (inactive) | GI50 [12]: > 100 µM (inactive) | GI50 [13]: > 100 µM (inactive) | GI50 [14]: > 100 µM (inactive) | GI50 [15]: > 100 µM (inactive) | GI50 [16]: > 100 µM (inactive) | GI50 [17]: > 100 µM (inactive) | GI50 [18]: > 100 µM (inactive) | GI50 [19]: > 100 µM (inactive) | GI50 [20]: > 100 µM (inactive) | GI50 [21]: > 100 µM (inactive) | GI50 [22]: > 100 µM (inactive) | GI50 [23]: > 100 µM (inactive) | GI50 [24]: > 100 µM (inactive) | GI50 [25]: > 100 µM (inactive) | GI50 [26]: > 100 µM (inactive) | GI50 [27]: > 100 µM (inactive) | GI50 [28]: > 100 µM (inactive) | GI50 [29]: > 100 µM (inactive) | GI50 [30]: > 100 µM (inactive) | GI50 [31]: > 100 µM (inactive) | GI50 [32]: > 100 µM (inactive) | GI50 [33]: > 100 µM (inactive) | GI50 [34]: > 100 µM (inactive) | GI50 [35]: > 100 µM | GI50 [36]: > 100 µM (inactive) | GI50 [37]: > 100 µM (inactive) | GI50 [38]: > 100 µM (inactive) | GI50 [39]: > 100 µM (inactive) | GI50 [40]: > 100 µM (inactive) | GI50 [41]: > 100 µM (inactive) | GI50 [42]: > 100 µM (inactive)

CC1(O)/C(=N/O)CC2CC1C2(C)C (configuration not stated)
GI50 [1]: > 100 µM (inactive) | GI50 [43]: > 100 µM (inactive) | GI50 [44]: > 100 µM (inactive) | GI50 [45]: > 100 µM (inactive) | GI50 [46]: > 100 µM (inactive) | GI50 [2]: > 100 µM (inactive) | GI50 [3]: > 100 µM (inactive) | GI50 [4]: > 100 µM (inactive) | GI50 [5]: > 100 µM (inactive) | GI50 [6]: > 100 µM (inactive) | GI50 [47]: > 100 µM (inactive) | GI50 [8]: > 100 µM (inactive) | GI50 [9]: > 100 µM (inactive) | GI50 [48]: > 100 µM (inactive) | GI50 [11]: > 100 µM (inactive) | GI50 [49]: > 100 µM (inactive) | GI50 [50]: > 100 µM (inactive) | GI50 [12]: > 100 µM (inactive) | GI50 [13]: > 100 µM (inactive) | GI50 [51]: > 100 µM (inactive) | GI50 [14]: > 100 µM (inactive) | GI50 [16]: > 100 µM (inactive) | GI50 [18]: > 100 µM (inactive) | GI50 [19]: > 100 µM (inactive) | GI50 [20]: > 100 µM (inactive) | GI50 [21]: > 100 µM (inactive) | GI50 [22]: > 100 µM (inactive) | GI50 [23]: > 10 µM (inactive) | GI50 [24]: > 100 µM (inactive) | GI50 [25]: > 100 µM (inactive) | GI50 [26]: > 100 µM (inactive) | GI50 [27]: > 100 µM (inactive) | GI50 [28]: > 100 µM (inactive) | GI50 [29]: > 100 µM (inactive) | GI50 [30]: > 100 µM (inactive) | GI50 [31]: > 100 µM (inactive) | GI50 [32]: > 100 µM (inactive) | GI50 [33]: > 100 µM (inactive) | GI50 [52]: > 100 µM (inactive) | GI50 [34]: > 100 µM (inactive) | GI50 [35]: > 100 µM | GI50 [36]: > 100 µM (inactive) | GI50 [53]: > 100 µM (inactive) | GI50 [37]: > 100 µM (inactive) | GI50 [54]: > 100 µM (inactive) | GI50 [39]: > 100 µM (inactive) | GI50 [55]: > 100 µM (inactive) | GI50 [40]: > 100 µM (inactive) | GI50 [41]: > 100 µM (inactive) | GI50 [42]: > 100 µM (inactive)

CC1CN=C(Nc2cccc(C(F)(F)F)c2)S1 (configuration not stated)
GI50 [43]: 42.4 µM (inactive) | GI50 [44]: 28.1 µM (inactive) | GI50 [46]: 70.8 µM (inactive) | GI50 [2]: 20.7 µM (inactive) | GI50 [3]: 84.5 µM (inactive) | GI50 [4]: 78.7 µM (inactive) | GI50 [5]: 43.5 µM (inactive) | GI50 [6]: 42.9 µM (inactive) | GI50 [47]: 51.5 µM (inactive) | GI50 [7]: 41.7 µM (inactive) | GI50 [8]: > 100 µM (inactive) | GI50 [9]: > 100 µM (inactive) | GI50 [10]: > 100 µM (inactive) | GI50 [56]: 94.4 µM (inactive) | GI50 [48]: 44.7 µM (inactive) | GI50 [11]: 27.5 µM (inactive) | GI50 [49]: 97.3 µM (inactive) | GI50 [50]: 52.8 µM (inactive) | GI50 [12]: 88.1 µM (inactive) | GI50 [51]: 79.3 µM (inactive) | GI50 [16]: 54 µM (inactive) | GI50 [18]: 52.5 µM (inactive) | GI50 [20]: 31.9 µM (inactive) | GI50 [21]: 30.4 µM (inactive) | GI50 [22]: 66.2 µM (inactive) | GI50 [23]: 21.7 µM (inactive) | GI50 [24]: 53.1 µM (inactive) | GI50 [25]: 23.4 µM (inactive) | GI50 [27]: > 100 µM (inactive) | GI50 [28]: 54.7 µM (inactive) | GI50 [29]: 40.6 µM (inactive) | GI50 [30]: 77.6 µM (inactive) | GI50 [31]: 44 µM (inactive) | GI50 [33]: 95.5 µM (inactive) | GI50 [52]: 81.5 µM (inactive) | GI50 [34]: 36.1 µM (inactive) | GI50 [35]: 36.1 µM | GI50 [36]: > 100 µM (inactive) | GI50 [53]: > 100 µM (inactive) | GI50 [38]: 34.1 µM (inactive) | GI50 [40]: 25.4 µM (inactive) | GI50 [41]: 80 µM (inactive) | GI50 [57]: 42 µM (inactive) | GI50 [42]: > 100 µM (inactive) | GI50 [58]: 95.3 µM (inactive)
